Measured values taken from US9790169B2, “IDO inhibitors” (BRISTOL-MYERS SQUIBB COMPANY, priority 2015, dated 2017).

Molecular target: human IDO1 (Homo sapiens, UniProt P14902)
Experiment: Assessment of human IDO-1 inhibitory activity in HEK cells (human IDO1/HEK293 cells, kynurenine read-out with Ehrlich reagent, absorbance 490 nm)
Type: cell-based
Set-up: expressed in transfected cells
Settings: HEK Human IDO-1 cellular assay
Description: Exemplary compounds were tested for inhibition of IDO activity.
Assessment of Human IDO-1 Inhibitory Activity in HEK Cells
HEK293 cells were transfected with a pCDNA-based mammalian expression vector harboring human IDO1 cDNA (NM 002164.2) by electroporation. They were cultured in medium (DMEM with 10% FBS) containing 1 mg/ml G418 for two weeks. Clones of HEK293 cells that stably expressed human IDO1 protein were selected and expanded for IDO inhibition assay.
The human IDO1/HEK293 cells were seeded at 10,000 cells per 50 μL per well with RPMI/phenol red free media contains 10% FBS in a 384-well black wall clear bottom tissue culture plate (Matrix Technologies LLC) 100 nL of certain concentration of compound was then added to each well using ECHO liquid handling systems. The cells were incubated for 20 hours in 37° C. incubator with 5% CO2.
The compound treatments were stopped by adding trichloroacetic acid (Sigma-Aldrich) to a final concentration at 0.2%. The cell plate was further incubated at 50° C. for 30 minute. The equal volume supernatant (20 μL) and 0.2% (w/v) Ehrlich reagent (4-dimethylaminobenzaldehyde, Sigma-Aldrich) in glacial acetic acid were mixed in a new clear bottom 384-well plate. This plate was then incubated at room temperature for 30 minute. The absorbance at 490 nm was measured on Envision plate reader.
Compound IC50 values were calculated using the counts of 500 nM of a reference standard treatment as one hundred percent inhibition, and counts of no compound but DMSO treatment as zero percent inhibition.

Chain of human IDO1 (P14902 whole entry): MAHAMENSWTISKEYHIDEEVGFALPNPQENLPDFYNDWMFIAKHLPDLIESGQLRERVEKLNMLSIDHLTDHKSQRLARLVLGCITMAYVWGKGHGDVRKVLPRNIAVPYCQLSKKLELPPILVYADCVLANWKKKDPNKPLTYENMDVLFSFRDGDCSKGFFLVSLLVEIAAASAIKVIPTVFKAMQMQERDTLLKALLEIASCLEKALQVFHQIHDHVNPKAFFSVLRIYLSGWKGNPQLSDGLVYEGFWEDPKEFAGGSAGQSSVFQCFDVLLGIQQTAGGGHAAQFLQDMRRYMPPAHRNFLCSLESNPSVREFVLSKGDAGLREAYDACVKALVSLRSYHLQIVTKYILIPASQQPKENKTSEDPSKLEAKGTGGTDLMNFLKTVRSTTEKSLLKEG

| Compound | IC50 |
| --- | --- |
| CCOc1ncc(Nc2cc(C(CC(=O)O)c3ccccc3)ccc2N(CC)C2CCOCC2)cn1 (single isomer, unassigned) [Example 588, 3-(3-((2-Ethoxypyrimidin-5-yl)amino)-4-(ethyl(tetrahydro-2H-pyran-4-yl)amino)phenyl)-3-phenylpropanoic acid] | > 50 nM |
| CCC(CC(=O)O)c1ccc(N2CCC[C@H]2C(C)(C)O)c(Nc2ccc(OCC3CC3)cc2)c1 (single isomer, unassigned) [Example 818] | > 50 nM |
| CC[C@H](CC(=O)O)c1ccc(N(CC)C2CCOCC2)c(Nc2ccn3nccc3n2)c1 (single isomer, unassigned) [Example 511] | > 50 nM |
| CC[C@H](CC(=O)O)c1ccc(N2CCC[C@H]2C(C)(C)O)c(NC(=O)Nc2ccc(C)cc2)c1 (single isomer, unassigned) [Example 767] | > 50 nM |
| CCN(c1ccc([C@@H](COC)CC(=O)O)cc1NC(=O)Nc1ccc(OC)cc1F)C1CCOCC1 (single isomer, unassigned) [Example 424] | > 50 nM |
| 3-(4-(isobutyl(tetrahydro-2H-pyran-4-yl)amino)-3-(3-(4-phenoxyphenyl)ureido)phenyl)butanoic acid [Example 962] | > 50 nM |
| CCN(c1ccc([C@@H](COC)CC(=O)O)cc1Nc1cnc(C)nc1)C1CCOCC1 (single isomer, unassigned) [Example 379] | > 50 nM |
| CCC(CC(=O)O)c1ccc(N(CC(C)C)CC(C)(C)O)c(Nc2ccc3nc(C)sc3c2)c1 (racemic) [Example 452, 3-(4-((2-Hydroxy-2-methylpropyl)(isobutyl)amino)-3-((2-methylbenzo[d]thiazol-6-yl)amino)phenyl)pentanoic acid] | > 50 nM |
| CCN(c1ccc(C(CC(=O)O)c2ccccc2)cc1NC(=O)Nc1ccc(Cl)cc1F)C1CCOCC1 (single isomer, unassigned) [Example 595, 3-(3-(3-(4-chloro-2-fluorophenyl)ureido)-4-(ethyl(tetrahydro-2H-pyran-4-yl)amino)phenyl)-3-phenylpropanoic acid] | > 50 nM |
| CCN(c1ccc(C(C)CC(=O)O)cc1NC(=O)Nc1ccc(C)cc1)C1CCOCC1 (single isomer, unassigned) [Example 639, 3-(4-(ethyl(tetrahydro-2H-pyran-4-yl)amino)-3-(3-(p-tolyl)ureido)phenyl)butanoic acid] | < 50 nM |
| CCC(CC(=O)O)c1ccc(N2C[C@@H](C)O[C@@H](C)C2)c(Nc2ccc3c(c2)OC(F)(F)O3)c1 (single isomer, unassigned) [Example 765] | < 50 nM |
| CCC(CC(=O)O)c1cc(F)c(N(CC(C)C)CC(C)C)c(NC(=O)Nc2ccc(C)c(F)c2)c1 (racemic) [Example 974, (+/−)-3-(4-(diisobutylamino)-3-fluoro-5-(3-(3-fluoro-4-methylphenyl)ureido)phenyl)pentanoic acid] | < 50 nM |
| CC(C)CN(CC(C)C)c1ccc(C(CC(=O)O)CN(C)C)cc1NC(=O)Nc1cncnc1 (racemic) [Example 1001, (+/−)-3-(4-(Disobutylamino)-3-(3-(pyrimidin-5-yl)ureido)phenyl)-4-(dimethylamino)butanoic acid] | > 50 nM |
| CC(CC(=O)O)c1ccc(N2C[C@@H](C)O[C@@H](C)C2)c(Nc2ccc(C#N)cc2)c1 (single isomer, unassigned) [Example 737] | > 50 nM |
| CCC(CC(=O)O)c1cc(F)c(N(CC(C)C)CC(C)C)c(NC(=O)Nc2ccccc2Cl)c1 (racemic) [Example 975, (+/−)-3-(3-(3-(2-chlorophenyl)ureido)-4-(diisobutylamino)-5-fluorophenyl)pentanoic acid] | < 50 nM |
| COCC(CC(=O)O)c1ccc(N(CC(C)C)C2CCOCC2)c(NC(=O)Nc2ccc(C)cc2)c1 (single isomer, unassigned) [Example 1209, 3-(4-(Isobutyl(tetrahydro-2H-pyran-4-yl)amino)-3-(3-(p-tolyl)ureido)phenyl)-4-methoxybutanoic acid] | > 50 nM |
| CCN(c1ccc(C(C)(C)CC(=O)O)cc1Nc1ccc(F)cc1)C1CCC(C)(O)CC1 (stereo not drawn) [Example 2, 3-(4-(ethyl(4-hydroxy-4-methylcyclohexyl)amino)-3-((4-fluorophenyl)amino)phenyl)-3-methylbutanoic acid] | < 5 nM |
| CCC(CC(=O)O)c1ccc(N2CCOC[C@H]2C(C)C)c(Nc2ccc3nc(C)sc3c2)c1 (single isomer, unassigned) [Example 892] | < 50 nM |
| CC[C@@H](CC(=O)O)c1ccc(N2C[C@@H](C)O[C@@H](C)C2)c(NC(=O)Nc2ccc(C)cc2)c1 (single isomer, unassigned) [Example 754] | > 50 nM |
| COCC(CC(=O)O)c1ccc(N(CC(C)C)C2CCCCC2)c(NC(=O)Nc2cncnc2)c1 (single isomer, unassigned) [991-1] | < 50 nM |
| CCC(CC(=O)O)c1cc(NC(=O)Nc2cnc(C)nc2)c(N(CC(C)C)C2CCCCC2)cc1F (racemic) [Example 1125, (±)-3-(4-(Cyclohexyl(isobutyl)amino)-2-fluoro-5-(3-(2-methylpyrimidin-5-yl)ureido)phenyl)pentanoic acid] | < 5 nM |
| CCOc1ccc(Nc2cc([C@@H](CC)CC(=O)O)ccc2N(CC(C)(C)O)C2CCOCC2)c(F)c1 (single isomer, unassigned) [Example 201] | < 50 nM |
| CCC(CC(=O)O)c1ccc(N(CC(C)C)C2CCCCC2)c(NC(=O)Cc2ccc(Cl)cc2F)c1 (single isomer, unassigned) [Example 1096 E2] | < 5 nM |
| CC(C)CN(CC(C)C)c1ccc(C(C)(C)CC(=O)O)cc1Nc1ccc2c(c1)OC(F)(F)O2 [Example 147, 3-(3-((2,2-difluorobenzo[d][1,3]dioxol-5-yl)amino)-4-(diisobutylamino)phenyl)-3-methylbutanoic acid] | < 50 nM |
| CC(CC(=O)O)c1ccc(N2CCC[C@H]2C(C)(C)O)c(Nc2ccc(F)cc2)c1 (single isomer, unassigned) [Example 798] | > 50 nM |

The remaining lines, values ahead:

| IC50 | Compound |
| --- | --- |
| < 5 nM | CCC(CC(=O)O)c1ccc(N(CC(C)C)CC(C)C)c(NC(=O)Cc2ccc(C#N)cc2)c1 (single isomer, unassigned) [Example 1104, 3-(3-(2-(4-Cyanophenyl)acetamido)-4-(diisobutylamino)phenyl)pentanoic acid] |
| < 5 nM | CC[C@H](CC(=O)O)c1ccc(N(CC)C2CCOCC2)c(Nc2ccc(OC)nc2)c1 (single isomer, unassigned) [Example 518] |
| < 5 nM | CCc1ccc(Nc2cc([C@@H](CC)CC(=O)O)ccc2N(CC)C2CCOCC2)cc1 (single isomer, unassigned) [Example 477] |
| < 5 nM | Cc1ccc(NC(=O)Nc2cc(C(CC(=O)O)C3CC3)ccc2N(CC(C)C)C2CCOCC2)cc1 (single isomer, unassigned) [1202 E2] |
| < 5 nM | CCC(CC(=O)O)c1ccc(N(CC2CC2)C(C)C)c(Nc2ccc(Cl)cc2)c1 (single isomer, unassigned) [Example 714, 3-(3-((4-chlorophenyl)amino)-4-((cyclopropylmethyl) (isopropyl)amino)phenyl) pentanoic acid] |
| < 5 nM | CC[C@H](CC(=O)O)c1ccc(N(CC(C)(C)O)C2CCCCC2)c(Nc2ccc(Cl)cc2)c1 (single isomer, unassigned) [Example 242] |
| < 5 nM | CCOc1ccc(Nc2cc([C@@H](CC)CC(=O)O)ccc2N(CC)C2CCOCC2)nc1 (single isomer, unassigned) [Example 482] |
| < 5 nM | COCC(CC(=O)O)c1cc(F)c(N(CC(C)C)CC(C)C)c(NC(=O)Nc2ccc(OC)cc2F)c1 (single isomer, unassigned) [Example 1176, 3-(4-(Diisobutylamino)-3-fluoro-5-(3-(2-fluoro-4-methoxyphenyl)ureido)phenyl)-4-methoxybutanoic acid] |
| < 5 nM | CCC(CC(=O)O)c1ccc(N2CCOC[C@H]2C(C)C)c(Nc2ccc(C#N)cc2)c1 (single isomer, unassigned) [Example 899] |
| < 5 nM | CCC(CC(=O)O)c1ccc(N2C[C@@H]3C[C@H]2CN3Cc2ccccc2)c(Nc2ccc(C)cc2)c1 (single isomer, unassigned) [Example 666 E1] |
| < 5 nM | CCN(c1ccc(C(CC(=O)O)c2ccccc2)cc1Nc1ccc(Cl)cc1)C1CCOCC1 (single isomer, unassigned) [Example 580, 3-(3-((4-chlorophenyl)amino)-4-(ethyl(tetrahydro-2H-pyran-4-yl)amino)phenyl)-3-phenylpropanoic acid] |
| < 5 nM | CC[C@H](CC(=O)O)c1ccc(N(CC)C2CCOCC2)c(Nc2cnc(OCC3CC3)nc2)c1 (single isomer, unassigned) [Example 520] |
| < 5 nM | CC[C@@H](CC(=O)O)c1ccc(N(CC(C)(C)O)C2CCCCC2)c(Nc2ccc(Cl)cc2)c1 (single isomer, unassigned) [Example 231] |
| < 5 nM | COCC(CC(=O)O)c1cc(F)c(N(CC(C)C)CC(C)C)c(NC(=O)Cc2ccc(C)cc2)c1 (single isomer, unassigned) [Example 1190, 3-(4-(Diisobutylamino)-3-fluoro-5-(2-(p-tolyl)acetamido)phenyl)-4-methoxybutanoic acid] |
